Converted amounts (≈) assume the structure as drawn. “Also recorded” adds a separate entry of the source. Where two headings read alike, the source gives them in different places.
Legend:
[1] = tested on: Escherichia coli (ATCC 25922); type: cell-based
F. novicida strain U112 = test: microbe, parasite or virus in culture; type: cell-based, F. tularensis subspecies novicida
[2] = tested on: Salmonella enterica serovar Typhimurium (ATCC 14028); type: cell-based
[3] = tested on: F. tularensis strain Schu S4 (type A); test: microbe, parasite or virus in culture; type: cell-based
[4] = tested on: live vaccine strain (LVS, type B); test: microbe, parasite or virus in culture; type: cell-based, F. tularensis
[5] = tested on: intracellular F. tularensis (type A, Schu S4) in TPA-treated THP-1 cells; type: cell-based
[6] = tested on: intracellular F. novicida in TPA-differentiated human THP-1 macrophages; type: cell-based
[7] = tested on: intracellular F. novicida in RAW264.7 murine macrophages; type: cell-based
[8] = tested on: RAW264.7 murine macrophage cells
[9] = Francisella tularensis, U112, 24 h

Structure (SMILES): CS(=O)(=O)c1ccc(C2=C(c3ccccc3)C(=O)OC2)cc1 [rofecoxib]
- effect on bacteria [1]: no appreciable effect
- effect on bacteria (F. novicida strain U112): no appreciable effect
- effect on bacteria [2]: no appreciable effect
- effect on bacteria [3]: no appreciable effect
- effect on bacteria [4]: no appreciable effect

Structure (SMILES): Nc1ccc(-n2nc(C(F)(F)F)cc2-c2ccc(-c3ccccc3)cc2)cc1 [Compound 16, 4-(5-Biphenyl-4-yl-3-trifluoromethyl-pyrazol-1-yl)-phenylamine]
- MIC (F. novicida strain U112; [9]): ≤ 4 µg/mL
- MIC ([4]; Francisella tularensis, 48 h): ≤ 4 µg/mL

Structure (SMILES): NC(=O)c1ccc(-n2nc(C(F)(F)F)cc2-c2ccc(-c3ccc(Cl)cc3)cc2)cc1 [Compound 2, 4-[5-(4′-Chloro-biphenyl-4-yl)-3-trifluoromethyl-pyrazol-1-yl]-benzamide]
- MIC (F. novicida strain U112; [9]): ≤ 4 µg/mL
- MIC ([4]; Francisella tularensis, 48 h): ≤ 4 µg/mL

Structure (SMILES): Nc1ccc(-n2nc(C(F)(F)F)cc2-c2ccc(-c3ccc(Br)cc3)cc2)cc1 [Compound 20, 4-[5-(4′-Bromo-biphenyl-4-yl)-3-trifluoromethyl-pyrazol-1-yl]-phenylamine]
- inhibition of intracellular Schu S4 survival [5]: significant inhibitory effect
- activity against E. coli [1]: inactive
- MIC (F. novicida strain U112; [9]): ≤ 4 µg/mL
- activity against S. enterica serovar Typhimurium [2]: inactive
- inhibition of intracellular F. novicida survival [6]: effectively inhibits; also recorded: could inhibit the survival of intracellular Francisella
- inhibition of intracellular F. novicida survival [7]: effectively inhibits; also recorded: could inhibit the survival of intracellular Francisella
- MIC ([4]; Francisella tularensis, 48 h): ≤ 4 µg/mL

Structure (SMILES): Cc1ccc(-c2cc(C(F)(F)F)nn2-c2ccc(S(N)(=O)=O)cc2)cc1 [celecoxib, 4-[5-(4-methylphenyl)-3-(trifluoromethyl)pyrazol-1-yl]benzenesulfonamide, reference compound]
- activity against E. coli [1]: inactive
- decrease in CFU (F. novicida strain U112): ≧log decrease in CFU
- activity against S. enterica serovar Typhimurium [2]: inactive
- MIC ([3]; Francisella tularensis, 24 h): 16 µg/mL (≈ 42 µM)
- decrease in CFU [4]: ≧log decrease in CFU
- MIC ([4]; Francisella tularensis, 48 h): 16 µg/mL (≈ 42 µM)

Structure (SMILES): NS(=O)(=O)c1ccc(-n2nc(C(F)(F)F)cc2-c2ccc(-c3ccc(Cl)cc3)cc2)cc1 [Compound 11, 4-[5-(4′-Chloro-biphenyl-4-yl)-3-trifluoromethyl-pyrazol-1-yl]-benzenesulfonamide]
- MIC (F. novicida strain U112; [9]): ≤ 4 µg/mL
- MIC ([4]; Francisella tularensis, 48 h): ≤ 4 µg/mL

Structure (SMILES): NS(=O)(=O)c1ccc(-n2nc(C(F)(F)F)cc2-c2ccc(-c3cc(Cl)c(Cl)cc3Cl)cc2)cc1 [Compound 12, 4-[5-(2′,4′,5′-Trichloro-biphenyl-4-yl)-3-trifluoromethyl-pyrazol-1-yl]-benzenesulfonamide]
- MIC (F. novicida strain U112; [9]): ≤ 4 µg/mL
- cytotoxicity for macrophages [8]: showed cytotoxicity for macrophages

Structure (SMILES): Nc1ccc(-n2nc(C(F)(F)F)cc2-c2ccc(-c3cc(Cl)c(Cl)cc3Cl)cc2)cc1 [Compound 17, 4-[5-(2′,4′,5′-Trichloro-biphenyl-4-yl)-3-trifluoromethyl-pyrazol-1-yl]-phenylamine]
- MIC (F. novicida strain U112): no measurable inhibitory effect
- MIC [4]: potent inhibitor
